From PMC6792352, “Limited Chemical Structural Diversity Found to Modulate Thyroid Hormone Receptor in the Tox21 Chemical Library” (Environmental Health Perspectives, 2019) come the findings set out here.

The data set is described as follows: in vitro. Particulars: rat, gh3-tre-luc cells.

Counter-ions that a name gives are not always drawn.

Turning to `N#Cc1c(Cl)cccc1Cl` [Dichlobenil], the CC50 (usually the concentration that lowers cell viability or growth by half) at 24 h (AC50 (uM) modified / 1000) is > 90 µM.
As to `C/C=C/C=C/C=O` [(2E,4E)-2,4-Hexadienal], the CC50 at 24 h (AC50 (uM) modified / 1000) was > 90 µM.
Turning to `NNc1nnc(NN)c2ccccc12` [Dihydralazine], for the setting “AC50 (uM) modified / 1000”, the CC50 at 24 h was > 50 µM.
As for `CCC(C)(S(=O)(=O)CC)S(=O)(=O)CC` [Sulfonethylmethane], where the note is “AC50 (uM) modified / 1000, Tox21_110001=Tox21_112153, viability, 1 nM T3 present, 24 h”, the CC50 at 24 h was > 50 µM.
Regarding `O=[N+]([O-])c1ccc(Cl)cc1Cl` [2,4-Dichloronitrobenzene], the CC50 at 24 h (AC50 (uM) modified / 1000) is > 90 µM.
As for `CN(CCOc1ccc(CC2SC(=O)NC2=O)cc1)c1ccccn1` (centres unmarked) [Rosiglitazone maleate], the CC50 at 24 h (AC50 (uM) modified / 1000) is > 90 µM.
For `O=C(O)CN(CC(=O)O)Cc1cc2c(cc1O)Oc1cc(O)c(CN(CC(=O)O)CC(=O)O)cc1C21OC(=O)c2ccccc21` [Oftasceine], for the setting “AC50 (uM) modified / 1000”, the CC50 at 24 h is > 50 µM.
`NC(N)=Nc1nc(CSCCC(N)=NS(N)(=O)=O)cs1` [Famotidine]: the CC50 at 24 h (AC50 (uM) modified / 1000) was > 90 µM.
Consider `O=NN(c1ccccc1)c1ccccc1` [N-Nitrosodiphenylamine], for which the half-maximal cytotoxic concentration (CC50) at 24 h (AC50 (uM) modified / 1000, Tox21_110001=Tox21_201457, viability, 1 nM T3 present, 24 h) is > 90 µM.
For the compound `Cc1cc(O)c(Cl)cc1C` [2-Chloro-4,5-dimethylphenol], where the note is “AC50 (uM) modified / 1000”, the CC50 at 24 h is > 90 µM.
As to `CCCCCC(CO)CCC` (centres unmarked) [2-Propyl-1-heptanol], the CC50 at 24 h (AC50 (uM) modified / 1000) was > 90 µM.
On to `O=C(/C=C/C=C/c1ccc2c(c1)OCO2)N1CCCCC1` [Piperine], for which the CC50 at 24 h (AC50 (uM) modified / 1000) was > 90 µM.
For the compound `FCOC(C(F)(F)F)C(F)(F)F` [Sevoflurane], for the setting “AC50 (uM) modified / 1000”, the CC50 at 24 h was > 50 µM.
As to `OCCSSCCO` [2-Hydroxyethyl disulfide], the CC50 at 24 h (AC50 (uM) modified / 1000, Tox21_110001=Tox21_302181, viability, 1 nM T3 present, 24 h) is > 90 µM.
For the compound `COc1ccc2cc3[n+](cc2c1OC)CCc1cc2c(cc1-3)OCO2` [Berberine chloride], the midpoint of cytotoxicity (AC50 (uM) modified / 1000), the CC50 at 24 h, lay at 88.5 µM.
As to `C=C[Si](OC(=C)C)(OC(=C)C)OC(=C)C` [Ethenyl[tris(prop-1-en-2-yloxy)]silane], under “AC50 (uM) modified / 1000”, the half-maximal cytotoxic concentration (CC50) at 24 h was > 90 µM.
Turning to `CCN(CC)c1ccc(N)cc1` [N,N-Diethylbenzene-1,4-diamine], where the note is “AC50 (uM) modified / 1000”, the CC50 at 24 h amounted to 64.7 µM.
On the same count and under the same terms, the result for `O=S(=O)(Cl)c1c(Cl)cccc1Cl` [2,6-Dichlorobenzenesulfonylchloride] reads > 90 µM; that for `Nc1c(Cl)cc(Cl)cc1Cl` [2,4,6-Trichloroaniline], > 90 µM; that for `CC(C)(CCC(=O)O)C(=O)O` [2,2-Dimethylpentanedioic acid], > 90 µM.
The same measure, in the same setting: the result for `Cc1cccc([N+](=O)[O-])c1C(=O)O` [2-Methyl-6-nitrobenzoic acid] reads > 90 µM; that for `O=C(O)Cc1csc(-c2ccc(Cl)cc2)n1` [Fenclozic acid], > 50 µM.
Consider `C=CC[N+]1(C)CC[C@]23c4c5ccc(O)c4O[C@H]2C(=O)CC[C@@]3(O)[C@H]1C5` (some centres unmarked) [Naloxone methyliodide], for which the CC50 at 24 h (AC50 (uM) modified / 1000, Tox21_110001=Tox21_112025, viability, 1 nM T3 present, 24 h) was > 50 µM.
As to `O=[N+]([O-])c1ccc2c(c1)Cc1ccccc1-2` [2-Nitrofluorene], the half-maximal cytotoxic concentration (CC50) at 24 h (AC50 (uM) modified / 1000) is > 90 µM.
As to `Nc1ccccc1-c1ccccc1` [2-Biphenylamine], the CC50 at 24 h (AC50 (uM) modified / 1000) is > 90 µM.
For `CCCCN(CCCCO)N=O` [Butyl-N-(4-hydroxybutyl)nitrosamine], for the setting “AC50 (uM) modified / 1000, Tox21_110001=Tox21_301263, viability, 1 nM T3 present, 24 h”, the CC50 at 24 h was > 90 µM.
Regarding `CC1CC(C)C(=O)C1=O` (centres unmarked) [3,5-Dimethyl-1,2-cyclopentanedione], the CC50 at 24 h (AC50 (uM) modified / 1000) was > 90 µM.
Turning to `ClC(Cl)=C(Cl)Cl` [Tetrachloroethylene], where the note is “AC50 (uM) modified / 1000, Tox21_110001=Tox21_201196, viability, 1 nM T3 present, 24 h”, the CC50 at 24 h is > 90 µM.
For `O=C(c1ccccc1)c1ccccc1` [Benzophenone], the CC50 at 24 h (AC50 (uM) modified / 1000) was > 50 µM.
Regarding `CC1CC(OC(=O)C(O)c2ccccc2)CC(C)(C)C1` (centres unmarked) [Cyclandelate], under “AC50 (uM) modified / 1000”, the CC50 at 24 h is > 50 µM.
Still for that read-out and setting: for `ClC(Cl)(Cl)c1ccccc1` [Benzotrichloride] the value was > 90 µM.
On the same count and under the same terms, the result for `Cc1cc(C)c(/C=C2\C(=O)Nc3ccccc32)[nH]1` [SU-5416] reads > 50 µM; that for `Nc1cc(Cl)cc(Cl)c1` [3,5-Dichloroaniline], > 90 µM.
On to `CC(C#N)(CCC(=O)O)N=NC(C)(C#N)CCC(=O)O` (centres unmarked) [4,4'-Diazene-1,2-diylbis(4-cyanopentanoic acid)], for which the CC50 at 24 h (AC50 (uM) modified / 1000) was > 90 µM.
Take `COC(=O)NS(=O)(=O)c1ccc(N)cc1` [Asulam]: the CC50 at 24 h (AC50 (uM) modified / 1000) is > 90 µM.
As for `CCCN(CC1CC1)c1c([N+](=O)[O-])cc(C(F)(F)F)cc1[N+](=O)[O-]` [Profluralin], under “AC50 (uM) modified / 1000, Tox21_110001=Tox21_301566, viability, 1 nM T3 present, 24 h”, the CC50 at 24 h came out at 76.2 µM.
`CC(C)c1cccc(C(C)C)c1N` [2,6-Diisopropylaniline]: the CC50 at 24 h (AC50 (uM) modified / 1000) was > 90 µM.
For `CCCNC(C)(C)COC(=O)c1ccccc1` [Meprylcaine hydrochloride], for the setting “AC50 (uM) modified / 1000”, the 50% cytotoxic concentration (CC50) at 24 h was > 50 µM.
Consider `CCCCCCCCCOS(=O)(=O)O` [Sulfuric acid, monononyl ester, sodium salt], for which the CC50 at 24 h (AC50 (uM) modified / 1000) was > 90 µM.
Still for that read-out and setting: the result for `c1ccc(C2CO2)cc1` (centres unmarked) [Styrene oxide] reads > 90 µM; that for `Nc1nc(-c2ccccc2)cs1` [2-Amino-4-phenylthiazole hydrobromide hydrate], > 90 µM; that for `CCO[Si](CCCCl)(OCC)OCC` [(3-Chloropropyl)(triethoxy)silane], > 90 µM.
`CCn1cc(C(=O)O)c(=O)c2cc3c(cc21)OCO3` [Oxolinic acid]: the CC50 at 24 h (AC50 (uM) modified / 1000) is > 90 µM.
In the case of `O=C(O)CNC(=O)c1ccc([N+](=O)[O-])cc1` [4-Nitrohippuric acid], under “AC50 (uM) modified / 1000”, the cytotoxic concentration (CC50) at 24 h was > 90 µM.
`CCc1nn(C)c(C(=O)NCc2ccc(C(C)(C)C)cc2)c1Cl` [Tebufenpyrad] returned a CC50 at 24 h (AC50 (uM) modified / 1000) of 53.4 µM.
`CC1(C)CCC[C@]2(C)[C@H]3CC(=O)O[C@]3(C)CC[C@@H]12` [(3aR)-(+)-Sclareolide] registered a CC50 at 24 h (AC50 (uM) modified / 1000) of 64.9 µM.
On to `BrC(Br)C(Br)Br` [1,1,2,2-Tetrabromoethane], for which, where the note is “AC50 (uM) modified / 1000”, the CC50 at 24 h is > 90 µM.
`C[N+]1(C)CCC(=C(c2ccccc2)c2ccccc2)CC1` [Diphemanil methylsulfate]: where the note is “AC50 (uM) modified / 1000”, the 50% cytotoxic concentration (CC50) at 24 h was > 20 µM.
In the case of `CN(C)CCc1c[nH]c2ccc(Cn3cncn3)cc12` [Rizatriptan], the CC50 at 24 h (AC50 (uM) modified / 1000) is > 50 µM.
Take `[H]/N=C(/N)N[C@H]1[C@H](O)[C@@H](O)[C@H](O[C@@H]2O[C@@H](C)[C@](O)(C=O)[C@H]2O[C@@H]2O[C@@H](CO)[C@H](O)[C@@H](O)[C@@H]2NC)[C@@H](N/C(N)=N\[H])[C@@H]1O` [Streptomycin sulfate (2:3)]: where the note is “AC50 (uM) modified / 1000”, the CC50 at 24 h is > 50 µM.
Consider `CC(=O)OCC(=O)[C@@]1(O)CC[C@H]2[C@@H]3C[C@H](C)C4=CC(=O)C=C[C@]4(C)[C@H]3[C@@H](O)C[C@@]21C` [Methylprednisolone acetate], for which the CC50 at 24 h (AC50 (uM) modified / 1000) is > 50 µM.
On to `CC1(C)[C@H]2CC[C@]1(C)C(=O)C2` [Camphor], for which the CC50 at 24 h (AC50 (uM) modified / 1000) was > 90 µM.
On to `C[N+](C)(C)C` [Tetramethylammonium chloride], for which the CC50 at 24 h (AC50 (uM) modified / 1000, Tox21_110001=Tox21_200660, viability, 1 nM T3 present, 24 h) is > 90 µM.
As to `CC(C)[C@H]1CC[C@H](C(=O)N[C@H](Cc2ccccc2)C(=O)O)CC1` [Nateglinide], under “AC50 (uM) modified / 1000”, the CC50 at 24 h is > 50 µM.
Same read-out and setting: for `C=CCC1=C(C)C(OC(=O)[C@@H]2[C@@H](C=C(C)C)C2(C)C)CC1=O` (some centres unmarked) [Allethrin] the value was 53.2 µM.
For `C[C@H]1[C@H](NC(=O)/C(=N\OC(C)(C)C(=O)O)c2csc(N)n2)C(=O)N1S(=O)(=O)O` [Aztreonam], under “AC50 (uM) modified / 1000”, the CC50 at 24 h is > 20 µM.
As for `CCN(CC)CCOC(=O)C(c1ccccc1)c1ccccc1` [Adiphenine hydrochloride], under “AC50 (uM) modified / 1000”, it took 43.3 µM to reach half-maximal cytotoxicity (CC50 at 24 h).
On to `CN1CCc2cc3c(cc2C1O)OCO3` (centres unmarked) [Hydrastinine hydrochloride], for which the CC50 at 24 h (AC50 (uM) modified / 1000) was > 90 µM.
On to `c1ccc(-n2cnnn2)cc1` [1-Phenyl-1H-tetrazole], for which the CC50 at 24 h (AC50 (uM) modified / 1000) was > 50 µM.
